# Measured values reported in US20080260857A1, “Substance and Method for Treating Neoplasms” (priority 2005, published 2008).
# System: myeloma NS/0 cells
# Assay: Myeloma NS/0 tumor in mice
# Assay type: in vivo, DBA/BALB(F1) mice
# Details: Table 3; i.p. 0.5 ml once a day for 5 days from day 3; Succinate 0.1 mg/mouse, IFN 10^5 IU/mouse, rubomicin 0.016 mg/mouse, etoposide 0.03 mg/mouse; day 21; light water 99.90%; mean ±SD (n=5)
# Description: Procedure. DBA/BALB(F1) mice were injected i.p. with 3×10^6 myeloma NS/0 cells to induces tumor. Myeloma NS/O-bearing mice were treated for 5 days since the third day of tumor implantation singly a day with i.p. injection of 0.5 ml saline made on the control water or 0.5 ml saline made on light water. Tumor masses and percent of mitotic cells in bone marrow were measured on day 21. Data are presented in Table 2 as tumor mass mean ±SD (n=5).
# Materials and tumor implantation procedure were as described in example 3. Interferon-alpha2b, rubomicin, and etoposide were used as typical anti-neoplasm agents.
# Myeloma NS/O-bearing mice were treated for 5 days since the third day singly a day with i.p. injection of 0.5 ml saline made on the water (control), 0.5 ml solution of 0.1 mg/mouse disodium succinate hexahydrate (Succinate) made on the control water, 0.5 ml solution of 10^5 IU/mouse interferon-alpha2b (IFN) made on the control water, 0.5 ml solution of 0.016 mg/mouse rubomicin made on the control water, 0.5 ml solution of 0.03 mg/mouse etoposide made on the control water; 0.5 ml saline made on light water, or 0.5 ml solution of 0.1 mg/mouse disodium succinate hexahydrate (Succinate) made on the light water, and 0.5 ml solution of 10^5 IU/mouse interferon-alpha2b (IFN) made on the light water, 0.5 ml solution of 0.016 mg/mouse rubomicin made on the light water, 0.5 ml solution of 0.03 mg/mouse etoposide made on the light water. Tumor masses were measured on day 21. Data are presented in Table 3 as tumor mass mean ±SD (n=5).
row,Compound,Tumor Mass [mg/mouse]
1,interferon-alpha2b [Control water + IFN],1460 ± 180
2,"O.O.O.O.O.O.O=C([O-])CCC(=O)[O-].[Na+].[Na+] [Control water + Succinate, disodium succinate hexahydrate]",1780 ± 220
3,rubomicin [Control water + rubomicin],1270 ± 150
4,"COc1cc([C@@H]2c3cc4c(cc3[C@@H](O[C@@H]3O[C@@H]5CO[C@@H](C)O[C@H]5[C@H](O)[C@H]3O)[C@H]3COC(=O)[C@H]23)OCO4)cc(OC)c1O [Control water + etoposide, etoposide]",1050 ± 120
